The values below come from patent US8796268B2, “Heteroaryls and uses thereof” (Millennium Pharmaceuticals, Inc., priority 2010, dated 2014).

Common to all, as to type: biochemical
Assay [1] has as its target T1, Human PI3K delta (Homo sapiens, UniProt O00329).
T1 construct: His (N); host or cells: SF9 insect cells (baculovirus)
Description: Human PI3K delta enzyme assay (HTRF). The following applies: for inhibition at 1 µM: read-out: p110 delta Percent Inhibition. An excerpt:
(§1) The catalytic subunits of PI3Ks are cloned into either pDEST8(p110 alpha) or pDEST10(p110beta, p110delta, and p110gamma) as N-terminal His tagged fusion proteins using the Gateway system (Invitrogen, catalog#11804-010 for pDEST8 and 11806-015 for pDEST10). The sequences are verified before recombinant protein expression using the Baculovirus Expression System with Gateway® Technology. The accession numbers for the subunits are as follows: • p110 alpha (GB:U79143) • p110beta (GB: S67334) • p110delta (GB: U86453) • p110gamma (GB: X83368) • The regulatory subunits of PI3Ks are cloned into pDEST8 as un-tagged protein using the Gateway system (Catalog#11804-010). The sequences are verified before recombinant protein expression using the Baculovirus Expression System with Gateway® Technology. The accession numbers for the subunits are as following: • p85 alpha (GB: BC030815) • p101(GB: AB028925) • VPS34 (accession number GB:BC033004) is cloned into pDEST20—Thombin as N-terminal GST tagged fusion proteins using the Gateway system (Invitrogen, catalog#11804-013). The sequences are verified before recombinant protein expression using the Baculovirus Expression System with Gateway® Technology.
(§2) For expression of the p110 complexes, the p85 (MOI of 4) is co-infected with p110 alpha, beta, and delta respectively (1MOI) in SF9 cells and harvested at 60 hours post co-infection. P110 gamma was infected at 1 MOI and harvested at 60 hours post infection.
(§3) For purification, PI3Ks are purified by Ni-NTA Agarose (Qiagen #30250) followed by Mono Q 10/100 GL (Ge Healthcare #17-5167-01). VPS34 is purified by Glutathione Sepharose 4 Fast Flow (GE Healthcare #17-5132-03) followed by HiTrap Q (GE Healthcare #17-1153-01).
(§4) 0.5 uL compounds in DMSO are added to wells of a 384 well microtitre plate (Corning 3575). At room temperature: 10 ul PI3K reaction buffer (50 mM Hepes, 5 mM DTT, 150 mM NaCl, 10 mM beta-glycerophosphate, 10 mM MgCl2, 0.25 mM sodium cholate and 0.001% CHAPS, pH 7.00) containing ATP (25 uM, Promega) is added followed immediately by 10 ul PI3K reaction buffer containing di-C8 P1(4,5)P2 (3.5 uM, CellSignals) and PI3Kalpha (0.4875 nM, Millennium Protein Sciences Group) and the mixture is incubated with shaking at room temperature for 30 minutes. Then 5 ul PI3K stop mix (50 mM Hepes, 5 mM DTT, 150 mM NaCl, 0.01% Tween-20, 15 mM EDTA and 25 nM biotin-PI(3,4,5)P3 (Echelon) is added to quench the reaction followed immediately by addition of 5 ul HTRF detection mix (50 mM Hepes, 5 mM DTT, 150 mM NaCl, 0.01% Tween-20, 40 mM KF, 1.0 nM GST:GRP-1 PH domain (Millennium Protein Sciences Group), 15 nM Streptavidin-XL (CisBio) and 0.375 nM anti-GST Eu++ antibody (CisBio) at pH 7.00). The plates are then incubated for 1 hour at room temperature with shaking and then read on a BMG PheraStar Plus reader.
(§5) 2) Human PI3K beta, delta and gamma isoforms are tested using the procedure described for PI3K alpha above but with the following changes: PI3K beta (5.25 nM), PI3K delta (0.75 nM) and PI3K gamma (5 nM). All isoforms supplied by Millennium Protein Science Group.
(§6) For the assay methods described above, test compound percent inhibition, at various concentrations, is calculated relative to control (DMSO and EDTA) treated samples. Compound concentration versus percent inhibition curves are fitted to generate IC50 values. One skilled in the art will appreciate that the values generated either as percentage inhibition at a single concentration or IC50 values are subject to experimental variation.

In assay [2] the target is T2, Human PI3K alpha (Homo sapiens, UniProt P42336).
T2 construct: His (N); host or cells: SF9 insect cells (baculovirus)
Description: Human PI3K alpha enzyme assay (HTRF). The following applies: for inhibition at 1.1 µM: read-out: p110 alpha Percent Inhibition.

The target of assay [3] is T3, Human PI3K gamma (Homo sapiens, UniProt P48736).
T3 construct: His (N); host or cells: SF9 insect cells (baculovirus)
Description: Human PI3K gamma enzyme assay (HTRF). Conditions: for inhibition at 1 µM: read-out: p110 gamma Percent Inhibition.
Description: as §1, §2, §3, §4, §5, §6

Assay [4] concerns the target T4, Human PI3K beta (Homo sapiens, UniProt P42338).
T4 construct: His (N); host or cells: SF9 insect cells (baculovirus)
The experiment in a line: Human PI3K beta enzyme assay (HTRF). Conditions: for inhibition at 1.1 µM: read-out: p110 beta Percent Inhibition. The method, boiled down: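 Compounds were mixed with 25 uM ATP, then with 3.5 uM di-C8 PI(4,5)P2 and His-tagged PI3K isoform (β 5.25 nM, δ 0.75 nM, γ 5 nM) at pH 7.00. After 30 min at room temperature, EDTA stopped the reaction and PIP3 was measured by HTRF over 1 h.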
On the technique in general: TR-FRET usually uses a lanthanide donor and a delayed reading to cut background.

The mark [5] stands for this setting: concentration not given, b1389 states 1.0 μM for PI3K δ and γ.
The mark [6] stands for this setting: concentration not given, b1387 states 1.1 μM for PI3K α and β.

Like-named read-outs stand apart in the source and are kept apart here.

T1 sequence (O00329 whole entry): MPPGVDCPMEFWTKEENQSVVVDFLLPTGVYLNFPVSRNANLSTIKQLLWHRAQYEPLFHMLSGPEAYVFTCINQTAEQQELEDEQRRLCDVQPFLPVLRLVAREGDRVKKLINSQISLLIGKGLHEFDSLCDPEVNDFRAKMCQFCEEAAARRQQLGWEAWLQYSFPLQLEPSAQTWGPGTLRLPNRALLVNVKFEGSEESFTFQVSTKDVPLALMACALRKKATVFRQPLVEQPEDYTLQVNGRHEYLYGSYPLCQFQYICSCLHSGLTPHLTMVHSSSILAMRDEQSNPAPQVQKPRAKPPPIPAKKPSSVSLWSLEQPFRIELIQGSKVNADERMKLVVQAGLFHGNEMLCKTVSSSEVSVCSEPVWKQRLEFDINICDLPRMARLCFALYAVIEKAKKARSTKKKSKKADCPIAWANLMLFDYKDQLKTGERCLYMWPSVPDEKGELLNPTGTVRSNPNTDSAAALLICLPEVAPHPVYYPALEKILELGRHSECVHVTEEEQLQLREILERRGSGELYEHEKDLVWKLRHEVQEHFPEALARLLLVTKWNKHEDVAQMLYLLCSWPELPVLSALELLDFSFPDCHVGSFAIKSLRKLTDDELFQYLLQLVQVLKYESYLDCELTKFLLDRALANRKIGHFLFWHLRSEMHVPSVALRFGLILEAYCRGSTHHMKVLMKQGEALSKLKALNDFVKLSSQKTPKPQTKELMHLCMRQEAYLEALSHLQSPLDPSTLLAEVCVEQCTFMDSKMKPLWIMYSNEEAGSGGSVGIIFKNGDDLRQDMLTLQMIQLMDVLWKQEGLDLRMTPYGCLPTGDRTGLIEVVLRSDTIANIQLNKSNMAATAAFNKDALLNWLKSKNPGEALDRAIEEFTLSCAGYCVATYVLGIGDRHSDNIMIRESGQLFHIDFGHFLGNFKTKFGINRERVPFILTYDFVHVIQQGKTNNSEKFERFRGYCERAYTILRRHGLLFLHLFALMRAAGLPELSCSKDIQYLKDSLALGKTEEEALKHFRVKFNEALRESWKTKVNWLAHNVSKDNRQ
T1 sequence (P27986 whole entry partner): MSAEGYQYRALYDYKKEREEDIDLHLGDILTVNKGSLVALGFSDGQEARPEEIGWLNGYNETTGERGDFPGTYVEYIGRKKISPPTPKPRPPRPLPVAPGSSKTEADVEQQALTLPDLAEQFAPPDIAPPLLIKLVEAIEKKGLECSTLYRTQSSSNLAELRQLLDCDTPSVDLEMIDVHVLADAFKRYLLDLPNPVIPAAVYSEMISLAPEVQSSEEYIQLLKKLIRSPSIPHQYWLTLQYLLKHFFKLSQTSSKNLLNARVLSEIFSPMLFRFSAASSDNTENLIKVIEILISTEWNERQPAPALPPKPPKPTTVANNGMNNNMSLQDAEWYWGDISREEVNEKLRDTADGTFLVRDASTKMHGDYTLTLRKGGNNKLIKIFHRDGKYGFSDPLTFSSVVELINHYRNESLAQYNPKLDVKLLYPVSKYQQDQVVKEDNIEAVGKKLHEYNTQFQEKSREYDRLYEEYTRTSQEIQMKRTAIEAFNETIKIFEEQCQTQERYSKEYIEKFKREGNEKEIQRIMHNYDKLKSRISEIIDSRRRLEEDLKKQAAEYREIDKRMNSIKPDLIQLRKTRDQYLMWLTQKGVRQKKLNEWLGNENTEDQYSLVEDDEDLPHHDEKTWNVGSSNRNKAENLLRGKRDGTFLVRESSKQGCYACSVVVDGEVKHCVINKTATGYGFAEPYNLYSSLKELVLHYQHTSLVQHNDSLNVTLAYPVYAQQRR
T2 sequence (P42336 whole entry): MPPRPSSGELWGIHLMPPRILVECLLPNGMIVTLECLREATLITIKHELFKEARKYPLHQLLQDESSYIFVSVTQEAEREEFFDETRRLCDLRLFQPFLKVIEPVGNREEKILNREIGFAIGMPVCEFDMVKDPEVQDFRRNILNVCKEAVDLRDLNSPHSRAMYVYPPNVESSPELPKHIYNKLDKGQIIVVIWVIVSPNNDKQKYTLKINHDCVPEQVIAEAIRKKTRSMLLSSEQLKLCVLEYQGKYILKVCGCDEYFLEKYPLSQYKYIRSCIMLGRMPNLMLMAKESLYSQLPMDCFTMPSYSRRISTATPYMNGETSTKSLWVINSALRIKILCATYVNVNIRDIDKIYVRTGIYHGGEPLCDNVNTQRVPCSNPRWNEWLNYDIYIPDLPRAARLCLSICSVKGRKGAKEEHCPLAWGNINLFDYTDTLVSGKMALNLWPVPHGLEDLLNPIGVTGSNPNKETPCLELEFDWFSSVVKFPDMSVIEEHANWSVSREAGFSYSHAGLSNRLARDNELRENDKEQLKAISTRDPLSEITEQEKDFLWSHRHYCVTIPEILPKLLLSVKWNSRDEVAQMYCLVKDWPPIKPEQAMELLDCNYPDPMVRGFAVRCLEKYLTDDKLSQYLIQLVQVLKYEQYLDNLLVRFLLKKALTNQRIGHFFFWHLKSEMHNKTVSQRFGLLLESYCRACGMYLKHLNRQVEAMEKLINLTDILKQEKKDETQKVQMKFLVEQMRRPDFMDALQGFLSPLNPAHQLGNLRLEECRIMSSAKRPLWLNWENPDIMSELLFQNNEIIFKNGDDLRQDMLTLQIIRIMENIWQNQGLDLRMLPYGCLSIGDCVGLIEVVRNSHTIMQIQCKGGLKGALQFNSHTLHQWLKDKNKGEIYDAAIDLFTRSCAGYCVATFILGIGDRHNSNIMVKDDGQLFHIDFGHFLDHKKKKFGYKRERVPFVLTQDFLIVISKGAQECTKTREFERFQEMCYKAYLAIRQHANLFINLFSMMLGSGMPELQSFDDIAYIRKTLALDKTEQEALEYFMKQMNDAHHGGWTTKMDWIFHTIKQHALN
T2 sequence (P27986 whole entry partner): as the sequence (P27986 whole entry partner) above
T4 sequence (P42338 whole entry): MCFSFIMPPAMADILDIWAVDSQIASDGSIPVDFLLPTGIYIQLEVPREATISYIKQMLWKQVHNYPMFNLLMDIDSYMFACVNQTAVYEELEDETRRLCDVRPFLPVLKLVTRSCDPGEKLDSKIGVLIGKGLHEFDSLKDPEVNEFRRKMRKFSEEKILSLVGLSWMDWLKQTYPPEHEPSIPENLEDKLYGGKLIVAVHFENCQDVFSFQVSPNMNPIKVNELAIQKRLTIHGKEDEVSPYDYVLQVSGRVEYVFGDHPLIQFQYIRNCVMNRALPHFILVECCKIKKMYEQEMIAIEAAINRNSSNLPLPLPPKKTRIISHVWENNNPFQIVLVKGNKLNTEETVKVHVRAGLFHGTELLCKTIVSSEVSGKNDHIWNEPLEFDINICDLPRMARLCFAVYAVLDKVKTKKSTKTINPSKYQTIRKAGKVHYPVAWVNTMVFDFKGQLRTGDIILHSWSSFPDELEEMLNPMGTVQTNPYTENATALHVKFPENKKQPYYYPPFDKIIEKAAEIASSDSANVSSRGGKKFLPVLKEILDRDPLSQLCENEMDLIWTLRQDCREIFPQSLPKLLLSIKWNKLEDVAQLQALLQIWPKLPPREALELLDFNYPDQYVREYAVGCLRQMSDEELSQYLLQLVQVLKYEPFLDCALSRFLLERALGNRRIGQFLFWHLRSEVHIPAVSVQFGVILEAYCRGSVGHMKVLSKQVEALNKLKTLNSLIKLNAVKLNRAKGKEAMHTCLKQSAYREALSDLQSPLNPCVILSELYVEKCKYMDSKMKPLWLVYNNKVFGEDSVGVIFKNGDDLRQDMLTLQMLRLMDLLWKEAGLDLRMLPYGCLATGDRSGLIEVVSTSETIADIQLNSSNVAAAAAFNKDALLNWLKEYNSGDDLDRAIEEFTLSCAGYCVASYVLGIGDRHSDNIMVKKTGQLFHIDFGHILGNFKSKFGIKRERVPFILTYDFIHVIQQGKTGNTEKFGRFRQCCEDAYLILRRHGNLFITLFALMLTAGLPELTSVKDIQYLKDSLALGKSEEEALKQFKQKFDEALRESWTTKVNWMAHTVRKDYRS
T4 sequence (P27986 whole entry partner): as the sequence (P27986 whole entry partner) above
T3 sequence (P48736 whole entry): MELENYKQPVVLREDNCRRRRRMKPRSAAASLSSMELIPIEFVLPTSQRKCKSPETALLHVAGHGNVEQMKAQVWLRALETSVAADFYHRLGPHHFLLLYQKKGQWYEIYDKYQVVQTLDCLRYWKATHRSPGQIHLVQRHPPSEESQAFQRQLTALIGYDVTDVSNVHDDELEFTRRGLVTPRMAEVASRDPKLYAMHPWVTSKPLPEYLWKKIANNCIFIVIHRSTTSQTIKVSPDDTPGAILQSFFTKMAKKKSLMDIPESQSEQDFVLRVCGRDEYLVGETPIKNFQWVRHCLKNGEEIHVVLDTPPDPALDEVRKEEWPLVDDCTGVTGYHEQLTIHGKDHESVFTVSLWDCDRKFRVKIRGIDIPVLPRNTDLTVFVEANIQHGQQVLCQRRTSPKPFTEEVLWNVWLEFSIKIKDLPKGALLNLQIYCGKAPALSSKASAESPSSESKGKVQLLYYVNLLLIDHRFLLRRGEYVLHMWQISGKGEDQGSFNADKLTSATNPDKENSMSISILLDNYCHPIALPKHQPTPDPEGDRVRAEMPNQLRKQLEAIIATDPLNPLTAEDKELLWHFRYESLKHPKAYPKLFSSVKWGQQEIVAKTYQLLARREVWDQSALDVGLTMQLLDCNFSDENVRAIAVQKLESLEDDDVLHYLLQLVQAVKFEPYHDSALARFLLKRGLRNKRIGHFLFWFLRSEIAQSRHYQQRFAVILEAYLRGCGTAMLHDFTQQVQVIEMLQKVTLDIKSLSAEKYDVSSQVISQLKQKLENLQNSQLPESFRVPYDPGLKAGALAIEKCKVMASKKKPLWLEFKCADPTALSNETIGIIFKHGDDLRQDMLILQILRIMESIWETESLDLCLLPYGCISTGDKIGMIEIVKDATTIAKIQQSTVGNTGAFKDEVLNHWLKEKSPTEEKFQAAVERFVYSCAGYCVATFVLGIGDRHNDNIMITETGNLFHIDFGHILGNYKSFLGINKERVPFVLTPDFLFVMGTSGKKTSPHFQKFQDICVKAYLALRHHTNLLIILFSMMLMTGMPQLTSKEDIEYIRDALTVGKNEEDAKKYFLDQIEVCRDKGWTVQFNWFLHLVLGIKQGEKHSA

For `CC(C)(C)[S+]([O-])NC(c1ccc(Cl)c(Cl)c1)c1c(C(=O)O)sc(N2CCOCC2)c1C#N` (stereo not drawn) [Compound 342], the inhibition at 1 µM in assay [1] (setting [5]) stood at 97%; in assay [3] (setting [5]), 12%. In addition, the inhibition at 1.1 µM in assay [2] (setting [6]) is 34%; in assay [4] (setting [6]), 80%.
Taken in the same sequence, the figures for `Nc1cc(-c2cc(C(c3ccc(Cl)cc3)N3CCNCC3)c(-c3nnc[nH]3)s2)ccn1` (stereo not drawn) [Compound 254] were 91%, 8%, 49% and 96%.
The like results for `CC(=O)Nc1cc(-c2cc(C(c3ccc(Cl)cc3)N3CCOCC3)c(-c3nnc[nH]3)s2)ccn1` (stereo not drawn) [Compound 248] were, in that order, 109%, 35%, 89% and 106%.
The like results for `O=C(O)c1sc(-c2ccncc2)cc1C(O)c1ccc2ccccc2c1` (stereo not drawn) [Compound 205, 3-[hydroxy(2-naphthyl)methyl]-5-pyridin-4-ylthiophene-2-carboxylic acid] were, in that order, 83%, 64%, 42% and 114%.
With `CNC1CN(C(c2ccc(Cl)cc2)c2cc(-c3ccnc(NC(C)=O)c3)sc2-c2nnc[nH]2)C1` (stereo not drawn) [Compound 170], the inhibition at 1 µM stood at 105% in assay [1] (setting [5]) and 26% in assay [3] (setting [5]). For the same compound, the figures for the inhibition at 1.1 µM in assay [2] (setting [6]) and in assay [4] (setting [6]) were 84% and 106%, respectively.
Taken in the same sequence, the figures for `CC(=O)Nc1cc(-c2nc(Cc3ccc4ccccc4c3)c(-c3nnc[nH]3)s2)ccn1` [Compound 213] were 109%, 35%, 57% and 80%.
For the compound `COc1cc(C(O)c2cc(-c3ccnc(Cl)c3)sc2-c2nnc[nH]2)c(F)cc1Cl` (stereo not drawn) [Compound 149], the “p110 delta Percent Inhibition” value in assay [1] (setting [5]) worked out at 117%. Further, the “p110 alpha Percent Inhibition” value in assay [2] (setting [6]) amounted to 54%. Moreover, the “p110 gamma Percent Inhibition” value in assay [3] (setting [5]) is recorded as 75%. For the same compound, the “p110 beta Percent Inhibition” value in assay [4] (setting [6]) is reported as 109%.
As for `CC(c1ccc2ccccc2c1)c1c(C(=O)O)sc(N2CCOCC2)c1C#N` (stereo not drawn) [Compound 367, 4-cyano-5-(morpholin-4-yl)-3-[1-(2-naphthyl)ethyl]thiophene-2-carboxylic acid], the inhibition at 1 µM stood at 116% in assay [1] and 72% in assay [3]. The inhibition at 1.1 µM in assay [2] turned out to be 99%; in assay [4], 110%.
As to `O=C(O)c1sc(N2CCOCC2)nc1Cc1cc2ccccc2s1` [Compound 286], the inhibition at 1 µM in assay [1] (setting [5]) worked out at 104%; in assay [3] (setting [5]), 50%. The values for the inhibition at 1.1 µM in assay [2] (setting [6]) and in assay [4] (setting [6]) were 36% and 92%, respectively.
Taken in the same sequence, the figures for `CC(=O)Nc1cc(-c2cc(C(c3ccc(Cl)cc3)N3CC[C@@H](O)C3)c(-c3nnc[nH]3)s2)ccn1` (stereo partly drawn) [Compound 212] were 112%, 38%, 87% and 109%.
Taken in the same sequence, the figures for `N#Cc1c(N2CCOCC2)sc(C(=O)O)c1Cc1ccc2cc(F)ccc2c1` [Compound 315] were 114%, 75%, 97% and 110%.
Taken in the same sequence, the figures for `CC(=O)Nc1cc(-c2cc(C(N=[N+]=[N-])c3ccc(Cl)cc3)c(-c3nnc[nH]3)s2)ccn1` (stereo not drawn) [Compound 211] were 106%, 13%, 111% and 111%.
For the compound `O=C(O)Cc1sc(N2CCOCC2)nc1Cc1ccc(Cl)c(Cl)c1` [Compound 348, 2-(4-(3,4-dichlorobenzyl)-2-morpholinothiazol-5-yl)acetic acid], the inhibition at 1 µM is 56% in assay [1] (setting [5]) and 4% in assay [3] (setting [5]). Further, the inhibition at 1.1 µM in assay [2] (setting [6]) amounted to 4%; in assay [4] (setting [6]) it was 63%.
With `OC(c1cnc2ccccc2c1)c1cc(-c2ccncc2)sc1-c1nnc[nH]1` (stereo not drawn) [Compound 132], the inhibition at 1 µM in assay [1] (setting [5]) is 77%; in assay [3] (setting [5]), 53%. Further, the inhibition at 1.1 µM was determined as 45% in assay [2] (setting [6]) and 103% in assay [4] (setting [6]).
In the case of `OC(c1ccc2c(c1)OCCO2)c1cc(-c2ccncc2)sc1-c1nnc[nH]1` (stereo not drawn) [Compound 215], the figures for the inhibition at 1 µM in assay [1] (setting [5]) and in assay [3] (setting [5]) were 51% and 8%, respectively. Besides, the inhibition at 1.1 µM in assay [2] (setting [6]) is 29%; in assay [4] (setting [6]) it was 85%.
Taken in the same sequence, the figures for `O=C(O)c1sc(N2CCOCC2)nc1Cc1ccc2cc[nH]c2c1` [Compound 328] were 83%, 48%, 11% and 98%.
The like results for `CN(C)CCC(c1ccc(Cl)c(Cl)c1)c1c(C(=O)O)sc(N2CCOCC2)c1C#N` (stereo not drawn) [Compound 331, 4-cyano-3-[1-(3,4-dichlorophenyl)-3-(dimethylamino)propyl]-5-(morpholin-4-yl)thiophene-2-carboxylic acid] were, in that order, 107%, 51%, 37% and 105%.
The like results for `COc1ccc2ccc(Cc3nc(N4CCOCC4)sc3C(=O)O)cc2c1` [Compound 335] were, in that order, 107%, 31%, 54% and 111%.
As to `N#Cc1c(-c2ccncc2)sc(-c2nnc[nH]2)c1Cc1ccc2ccccc2c1` [Compound 148], the results for the inhibition at 1 µM in assay [1] (setting [5]) and in assay [3] (setting [5]) were 69% and 34%, respectively. In addition, the inhibition at 1.1 µM in assay [2] (setting [6]) is 41%; in assay [4] (setting [6]) it was 98%.
Taken in the same sequence, the figures for `O=C(O)c1sc(N2CCOCC2)nc1Cc1ccc2ccccc2c1F` [Compound 319] were 113%, 50%, 59% and 105%.
Consider `CN(C)C(c1ccc(Cl)c(Cl)c1)c1c(C(=O)O)sc(N2CCOCC2)c1C#N` (stereo not drawn) [Compound 362, 4-cyano-3-[(3,4-dichlorophenyl)(dimethylamino)methyl]-5-(morpholin-4-yl)thiophene-2-carboxylic acid], for which the “p110 delta Percent Inhibition” value in assay [1] (setting [5]) turned out to be 104%. The “p110 alpha Percent Inhibition” value in assay [2] (setting [6]) came to 80%. For the same compound, the “p110 gamma Percent Inhibition” value in assay [3] (setting [5]) is on record as 44%. The “p110 beta Percent Inhibition” value in assay [4] (setting [6]) turned out to be 116%.
